Results as given in US20240317777A1, “NOVEL MACROCYCLIC AMINOPYRAZOLE COMPOUNDS AS CDK2 INHIBITORS” (Accutar Biotechnology Inc., priority 2023, published 2024).
Where two headings read alike, the source gives them in different places.

Assays:
[1] = biological target: CDK9-CYCLIN T1 (Homo sapiens, UniProt P50750); test: CDK protein kinase inhibition by ADP-Glo assay, CDK9-CYCLIN T1; assay type: biochemical; settings: for CDK2 Fold selectivity against CDK9: fold selectivity for CDK2 over CDK9, recombinant CDK kinases
Sequence of CDK9-CYCLIN T1 (P50750 whole entry): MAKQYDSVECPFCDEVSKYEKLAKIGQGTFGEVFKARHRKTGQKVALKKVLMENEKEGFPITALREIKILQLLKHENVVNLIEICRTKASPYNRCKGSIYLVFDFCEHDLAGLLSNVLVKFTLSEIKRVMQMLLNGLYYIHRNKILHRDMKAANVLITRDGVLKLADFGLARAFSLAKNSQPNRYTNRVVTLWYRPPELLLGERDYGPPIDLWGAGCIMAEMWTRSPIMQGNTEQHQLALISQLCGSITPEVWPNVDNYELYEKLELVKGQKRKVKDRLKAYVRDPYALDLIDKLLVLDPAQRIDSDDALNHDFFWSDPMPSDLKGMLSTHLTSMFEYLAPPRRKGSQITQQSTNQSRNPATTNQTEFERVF
Sequence of CDK9-CYCLIN T1 (O60563 whole entry partner): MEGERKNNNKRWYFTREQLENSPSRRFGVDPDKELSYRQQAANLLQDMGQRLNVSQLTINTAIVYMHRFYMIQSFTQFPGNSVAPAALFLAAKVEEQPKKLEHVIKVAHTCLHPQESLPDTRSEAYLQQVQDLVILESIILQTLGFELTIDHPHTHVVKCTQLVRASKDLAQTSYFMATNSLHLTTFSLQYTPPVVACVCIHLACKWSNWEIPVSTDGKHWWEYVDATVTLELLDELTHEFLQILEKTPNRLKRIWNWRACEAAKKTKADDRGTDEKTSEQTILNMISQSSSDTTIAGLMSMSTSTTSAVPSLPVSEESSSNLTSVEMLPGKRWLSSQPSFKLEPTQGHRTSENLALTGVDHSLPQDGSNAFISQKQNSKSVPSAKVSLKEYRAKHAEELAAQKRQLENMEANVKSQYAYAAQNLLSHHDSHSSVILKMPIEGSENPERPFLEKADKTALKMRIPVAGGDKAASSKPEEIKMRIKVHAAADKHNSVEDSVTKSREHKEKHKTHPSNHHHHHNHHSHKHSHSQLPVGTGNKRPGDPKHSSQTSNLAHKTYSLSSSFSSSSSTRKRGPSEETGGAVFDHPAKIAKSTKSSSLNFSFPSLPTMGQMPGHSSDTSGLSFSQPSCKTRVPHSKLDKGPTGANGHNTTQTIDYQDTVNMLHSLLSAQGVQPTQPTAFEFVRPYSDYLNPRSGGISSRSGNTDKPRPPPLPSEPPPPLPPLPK
Method: (§1) CDK Protein Kinase Inhibition by ADP-Glo Assay
(§2) This ADP-Glo assay measures ADP formed from a kinase reaction and indirectly quantifies the phosphorylation of peptide substrates by the CDK/cyclin protein complexes. The typical assays were carried out in Nanosyn by combining kinase/cyclin complexes, substrates, compounds, and cofactors (ATP and Mg2+) in a well of a 384-well microtiter plate (Corning 3824) and incubating at 22° C. (Table 1). At the end of the incubation, the reaction is quenched, and conversion is detected by luminescence using the Promega ADP-Glo™ Kinase Assay kit (catalog #V9102).
(§3) Final assay buffer mixture contains: • 100 mM HEPES, pH 7.5 • 0.1% BSA • 0.01% Triton X-100 • 1 mM DTT • 5 mM MgCl2 • 10 μM Sodium Orthovanadate • 100 μM Beta-Glycerophosphate • 1000 μM Ultra Pure ATP (provided in the Promega ADP-Glo™ Kinase Assay kit) • 1% DMSO (from compound)
(§4) Upon completion, 5 μL of the ADP Glo reagent was added to each well and the plate was further incubated at room temperature for 45 minutes. 10 uL of the Kinase Detection Reagent was subsequently added to each well. After 10 minutes of incubation, the plate was read and analyzed on the BioTek Synergy microplate reader using BioTek Gen5 software.

[2] = system: CCNE1-amplified OVCAR3 cells; test: Cell growth inhibition of CCNE1-amplified OVCAR3 cells (CellTiter-Glo); assay type: cell-based; settings: Homo sapiens, OVCAR-3, 144 h, 6 days
Outline: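 Growth read-out was CellTiter-Glo luminescence, taken after 10 min at room temperature at the end of a 6-day compound exposure at 37 °C. Compounds were diluted from DMSO stocks across various concentrations.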

[3] = biological target: CDK2-CYCLIN E1 (Homo sapiens, UniProt P24941); test: CDK protein kinase inhibition by ADP-Glo assay, CDK2-CYCLIN E1; assay type: biochemical; settings: read-out: CDK2-CYCLINE, IC50
Method: as §1, §2, §3, §4

[4] = biological target: CDK6-CYCLIN D3 (Homo sapiens, UniProt Q00534); test: CDK protein kinase inhibition by ADP-Glo assay, CDK6-CYCLIN D3; assay type: biochemical; settings: for IC50: read-out: CDK6-CYCLIND3, IC50; for CDK2 Fold selectivity against CDK6: fold selectivity for CDK2 over CDK6, recombinant CDK kinases
Sequence of CDK6-CYCLIN D3 (Q00534 whole entry): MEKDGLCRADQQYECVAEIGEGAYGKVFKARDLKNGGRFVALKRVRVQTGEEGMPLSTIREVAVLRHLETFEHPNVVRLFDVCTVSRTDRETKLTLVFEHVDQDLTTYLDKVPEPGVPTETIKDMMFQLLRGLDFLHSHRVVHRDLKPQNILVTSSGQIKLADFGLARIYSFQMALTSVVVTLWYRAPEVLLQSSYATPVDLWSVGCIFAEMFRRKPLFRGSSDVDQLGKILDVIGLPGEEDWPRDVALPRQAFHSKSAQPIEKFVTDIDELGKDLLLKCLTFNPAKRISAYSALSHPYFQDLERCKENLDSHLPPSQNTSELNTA
Sequence of CDK6-CYCLIN D3 (P30281 whole entry partner): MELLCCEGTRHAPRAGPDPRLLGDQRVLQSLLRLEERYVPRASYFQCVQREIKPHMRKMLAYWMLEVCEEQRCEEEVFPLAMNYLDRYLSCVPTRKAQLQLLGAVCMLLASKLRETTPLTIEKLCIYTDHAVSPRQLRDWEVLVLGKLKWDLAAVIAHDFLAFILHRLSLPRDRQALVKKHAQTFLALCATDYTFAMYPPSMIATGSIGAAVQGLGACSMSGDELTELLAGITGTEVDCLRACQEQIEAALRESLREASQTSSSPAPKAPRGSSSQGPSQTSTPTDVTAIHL
Method: as §1, §2, §3, §4

[5] = biological target: CDK1-CYCLIN B (Homo sapiens, UniProt P06493); test: CDK protein kinase inhibition by ADP-Glo assay, CDK1-CYCLIN B; assay type: biochemical; settings: for IC50: read-out: CDK1-CYCLINB, IC50; for CDK2 Fold selectivity against CDK1: fold selectivity for CDK2 over CDK1, recombinant CDK kinases
Sequence of CDK1-CYCLIN B (P06493 whole entry): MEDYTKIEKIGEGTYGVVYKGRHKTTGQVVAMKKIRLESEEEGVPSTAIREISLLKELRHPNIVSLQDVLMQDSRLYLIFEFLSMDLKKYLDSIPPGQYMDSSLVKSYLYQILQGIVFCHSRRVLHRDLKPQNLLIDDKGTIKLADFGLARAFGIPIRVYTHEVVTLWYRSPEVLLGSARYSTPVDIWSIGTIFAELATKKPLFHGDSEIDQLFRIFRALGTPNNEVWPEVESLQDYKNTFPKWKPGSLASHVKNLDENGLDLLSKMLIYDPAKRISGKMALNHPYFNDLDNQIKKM
Sequence of CDK1-CYCLIN B (P14635 whole entry partner): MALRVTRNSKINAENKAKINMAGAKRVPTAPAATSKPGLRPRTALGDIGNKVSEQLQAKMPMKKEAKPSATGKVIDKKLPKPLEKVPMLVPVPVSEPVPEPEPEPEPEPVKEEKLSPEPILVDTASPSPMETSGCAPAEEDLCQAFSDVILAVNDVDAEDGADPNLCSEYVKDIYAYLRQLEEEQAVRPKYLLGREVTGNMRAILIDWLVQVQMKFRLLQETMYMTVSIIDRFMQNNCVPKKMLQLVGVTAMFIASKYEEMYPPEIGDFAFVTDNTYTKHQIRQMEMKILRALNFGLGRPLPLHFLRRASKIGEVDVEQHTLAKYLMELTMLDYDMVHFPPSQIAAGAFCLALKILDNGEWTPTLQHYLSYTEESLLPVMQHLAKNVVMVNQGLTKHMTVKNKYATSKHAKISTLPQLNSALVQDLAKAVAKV
Method: as §1, §2, §3, §4

[6] = system: Phospho-Rb (Ser807/811) in OVCAR3 cells; test: Phospho-Rb expression inhibition in OVCAR3 cells quantified by In Cell Western; assay type: cell-based; settings: Homo sapiens, OVCAR-3, 24 hours, read-out: OVCAR-3 pRb IC50
Outline: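 In-cell western: after 24 h compound exposure at 37° C, fixed OVCAR3 cells co-stained for pRb Ser807/811 (800 nm channel) and total Rb (680 nm channel), imaged by LI-COR Odyssey.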

[7] = biological target: CDK4-CYCLIN D1 (Homo sapiens, UniProt P11802); test: CDK protein kinase inhibition by ADP-Glo assay, CDK4-CYCLIN D1; assay type: biochemical; settings: for IC50: read-out: CDK4-CYCLIND1, IC50; for CDK2 Fold selectivity against CDK4: fold selectivity for CDK2 over CDK4, recombinant CDK kinases
Sequence of CDK4-CYCLIN D1 (P11802 whole entry): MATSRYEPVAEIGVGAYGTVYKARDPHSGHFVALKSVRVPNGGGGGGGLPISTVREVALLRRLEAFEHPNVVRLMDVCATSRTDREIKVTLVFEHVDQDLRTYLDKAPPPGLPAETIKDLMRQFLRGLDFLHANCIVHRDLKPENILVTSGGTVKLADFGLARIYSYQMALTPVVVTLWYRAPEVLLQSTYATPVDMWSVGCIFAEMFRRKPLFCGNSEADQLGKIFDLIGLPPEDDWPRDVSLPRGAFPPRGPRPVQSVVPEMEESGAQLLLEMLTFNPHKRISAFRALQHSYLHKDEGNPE
Sequence of CDK4-CYCLIN D1 (P24385 whole entry partner): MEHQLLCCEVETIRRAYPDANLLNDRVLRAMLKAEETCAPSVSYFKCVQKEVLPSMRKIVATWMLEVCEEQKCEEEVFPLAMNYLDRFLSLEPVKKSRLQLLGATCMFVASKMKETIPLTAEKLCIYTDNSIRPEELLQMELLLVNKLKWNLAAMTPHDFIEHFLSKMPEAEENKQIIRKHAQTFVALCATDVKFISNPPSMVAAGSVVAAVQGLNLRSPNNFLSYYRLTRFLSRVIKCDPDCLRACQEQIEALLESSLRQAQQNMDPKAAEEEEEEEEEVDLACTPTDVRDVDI
Method: as §1, §2, §3, §4

[8] = system: CCNE1-normal SKOV3 cells; test: Cell growth inhibition of CCNE1-normal SKOV3 cells (CellTiter-Glo); assay type: cell-based; settings: Homo sapiens, SK-OV-3, 144 h, 6 days
Method: Cell Growth Inhibition of CCNE1-Normal SKOV3 Cells
SKOV3 cells were obtained from American Type Culture Collection (ATCC, HTB-77). SKOV3 cells were seeded in 96-well plates at 1000 cells/well in 90 μl of RPM11640 growth medium containing 10% FBS and 1% Penicillin Streptomycin, and then incubated at 37° C. overnight. The following day, the test compound was administered to the cells by using 1000× compound stock solution prepared in DMSO at various concentrations. 1000× compound stock solution was first diluted in culturing medium to 10x, then 10 uL compound medium was added to each well in the cell plates. After administration of the compound, the cells were then incubated at 37° C. for 6 days. Upon completion, the plates were equilibrated at room temperature for approximately 10 minutes. 100 ul of CellTiter-Glo® Reagent (Promega) was added to each well. The plates were then incubated at room temperature for 10 minutes and luminescence was recorded by EnSpire plate reader (PerkinElmer).

[9] = Table 35, recombinant CDK kinase, read-out: CDK9-CYCLINT1, IC50
[10] = Table 35, recombinant CDK kinase
[11] = Table 37, recombinant CDK kinase

Compound	IC50 [2] [nM]	IC50 [6] [nM]	IC50 [8] [nM]	other results
[2H]C1([2H])Oc2cc(ccn2)Nc2cc(n[nH]2)[C@H]2CC[C@H](C2)OC(=O)N[C@H]2C[C@H]1C2 [Compound 177, (1^1S,1^3R,7^1R,7^3S,Z)-2^1H-5,10-dioxa-3,8-diaza-4(4,2)-pyridina-2(3,5)-pyrazola-1(1,3)-cyclopentana-7(1,3)-cyclobutanacyclodecaphan-9-one-6,6-d2]	10 to 50	2 to 10	–	IC50 ([1]; ADP-Glo, 1000 μM ATP, Table 27, read-out: CDK9-CYCLINT1 IC50): 100 to 500 nM; CDK2 Fold selectivity, CDK9 ([1]; CDK2 versus CDK9, Table 28): D (D, >20 and ≤50); IC50 [1, 9]: 50 to 100 nM; CDK2 Fold selectivity against CDK9 ([1]; Table 36): D (D, >20 and ≤50); IC50 ([3]; ADP-Glo, 1000 μM ATP, Table 27): ≤ 10 nM; IC50 [3, 10]: ≤ 10 nM; IC50 ([4]; ADP-Glo, 1000 μM ATP, Table 27): 100 to 500 nM; CDK2 Fold selectivity, CDK6 ([4]; CDK2 versus CDK6, Table 28): D (D, >20 and ≤50); IC50 [4, 10]: 10 to 50 nM; CDK2 Fold selectivity against CDK6 ([4]; Table 36): E (E, <20); IC50 ([5]; ADP-Glo, 1000 μM ATP, Table 27): 10 to 50 nM; CDK2 Fold selectivity, CDK1 ([5]; CDK2 versus CDK1, Table 28): E (E, <20); IC50 [5, 10]: 10 to 50 nM; CDK2 Fold selectivity against CDK1 ([5]; Table 36): E (E, <20); IC50 ([7]; ADP-Glo, 1000 μM ATP, Table 27): 50 to 100 nM; CDK2 Fold selectivity, CDK4 ([7]; CDK2 versus CDK4, Table 28): D (D, >20 and ≤50); IC50 [7, 10]: 10 to 50 nM; CDK2 Fold selectivity against CDK4 ([7]; Table 36): E (E, <20)
C[C@@H]1NC(=O)O[C@@H]2CC[C@@H](C2)c2n[nH]c(c2F)Nc2ccnc(c2)OCCC1(F)F [Compound 188, (1^1S,1^3R,9S,E)-2^4,8,8-trifluoro-9-methyl-2^1H-5,12-dioxa-3,10-diaza-4(4,2)-pyridina-2(3,5)-pyrazola-1(1,3)-cyclopentanacyclododecaphan-11-one]	50 to 250	10 to 50	> 1250	–
C[C@@H]1NC(=O)O[C@@H]2CC[C@@H](C2)c2cc([nH]n2)Nc2cncc(c2)OCCC1(F)F [Compound 190, (1^1S,1^3R,9S,Z)-8,8-difluoro-9-methyl-2^1H-5,12-dioxa-3,10-diaza-4(3,5)-pyridina-2(3,5)-pyrazola-1(1,3)-cyclopentanacyclododecaphan-11-one]	10 to 50	2 to 10	250 to 1250	–
C[C@@H]1NC(=O)O[C@@H]2CC[C@@H](C2)c2cc([nH]n2)Nc2cnnc(c2)OCCC1(F)F [Compound 218, (1^1S,1^3R,9S,Z)-8,8-difluoro-9-methyl-2^1H-5,12-dioxa-3,10-diaza-4(5,3)-pyridazina-2(3,5)-pyrazola-1(1,3)-cyclopentanacyclododecaphan-11-one]	> 250	10 to 50	> 1250	–
C[C@@H]1NC(=O)O[C@@H]2CC[C@@H](C2)c2cc([nH]n2)Nc2cncc(n2)OCCC1(F)F [Compound 219, (1^1S,1^3R,9S,Z)-8,8-difluoro-9-methyl-2^1H-5,12-dioxa-3,10-diaza-4(2,6)-pyrazina-2(3,5)-pyrazola-1(1,3)-cyclopentanacyclododecaphan-11-one]	≤ 2	≤ 2	10 to 50	–
C[C@H]1NC(=O)O[C@@H]2CC[C@@H](C2)c2cc([nH]n2)Nc2ccnc(c2)OCCC1(F)F [Compound 220, (1^1S,1^3R,9R,Z)-8,8-difluoro-9-methyl-2^1H-5,12-dioxa-3,10-diaza-4(4,2)-pyridina-2(3,5)-pyrazola-1(1,3)-cyclopentanacyclododecaphan-11-one]	10 to 50	2 to 10	250 to 1250	–
[2H]C1([2H])Oc2cc(ccn2)Nc2[nH]nc(c2F)[C@H]2CC[C@H](C2)OC(=O)N[C@H]2C[C@H]1C2 [Compound 221, (1^1S,1^3R,7^1R,7^3S,E)-24-fluoro-2^1H-5,10-dioxa-3,8-diaza-4(4,2)-pyridina-2(3,5)-pyrazola-1(1,3)-cyclopentana-7(1,3)-cyclobutanacyclodecaphan-9-one-6,6-d2]	10 to 50	10 to 50	–	IC50 [1, 9]: > 500 nM; CDK2 Fold selectivity against CDK9 ([1]; Table 36): B (B, >100 and ≤500); IC50 [3, 10]: ≤ 10 nM; IC50 [4, 10]: 100 to 500 nM; CDK2 Fold selectivity against CDK6 ([4]; Table 36): C (C, >50 and ≤100); IC50 [5, 10]: 50 to 100 nM; CDK2 Fold selectivity against CDK1 ([5]; Table 36): E (E, <20); IC50 [7, 10]: 100 to 500 nM; CDK2 Fold selectivity against CDK4 ([7]; Table 36): C (C, >50 and ≤100)
C[C@H]1NC(=O)O[C@@H]2CC[C@@H](C2)c2n[nH]c(c2F)Nc2ccnc(c2)OCCC1(F)F [Compound 228, (1^1S,1^3R,9R,E)-2^4,8,8-trifluoro-9-methyl-2^1H-5,12-dioxa-3,10-diaza-4(4,2)-pyridina-2(3,5)-pyrazola-1(1,3)-cyclopentanacyclododecaphan-11-one]	50 to 250	50 to 250	> 1250	–
O=C1NC2CC(COc3cc(ccn3)Nc3cc(n[nH]3)C3C[C@@H](F)[C@H](C3)O1)C2 [Compound 229, (1^1R,1^3S,1^4R,7^1S,7^3R,Z)-1^4-fluoro-2^1H-5,10-dioxa-3,8-diaza-4(4,2)-pyridina-2(3,5)-pyrazola-1(1,3)-cyclopentana-7(1,3)-cyclobutanacyclodecaphan-9-one]	10 to 50	2 to 10	–	IC50 ([1]; Table 37, recombinant CDK kinase, read-out: CDK9-CYCLINT1, IC50): 100 to 500 nM; CDK2 Fold selectivity against CDK9 ([1]; Table 38): C (C, >50 and ≤100); IC50 [3, 11]: ≤ 10 nM; IC50 [4, 11]: 10 to 50 nM; CDK2 Fold selectivity against CDK6 ([4]; Table 38): E (E, <20); IC50 [5, 11]: 10 to 50 nM; CDK2 Fold selectivity against CDK1 ([5]; Table 38): E (E, <20); IC50 [7, 11]: 10 to 50 nM; CDK2 Fold selectivity against CDK4 ([7]; Table 38): E (E, <20)
C[C@@H]1CCCNC(=O)O[C@@H]2CC[C@@H](C2)c2cc(n[nH]2)Nc2ccnc(c2)O1 [compound 11]	50 to 250	10 to 50	> 1250	–
O=C1NC23CC(CCc4cc(cc(C(F)F)n4)Nc4cc([nH]n4)[C@H]4CC[C@H](C4)O1)(C2)C3 [compound 20]	10 to 50	10 to 50	> 1250	–
O=C1NC23CC(CCOc4cc(cc(C(F)F)n4)Nc4cc([nH]n4)[C@H]4CC[C@H](C4)O1)(C2)C3 [compound 23]	2 to 10	≤ 2	50 to 250	–
C[C@@H]1OCCCNC(=O)O[C@@H]2CC[C@@H](C2)c2cc([nH]n2)Nc2ccnc1c2 [compound 72]	> 250	10 to 50	> 1250	–
C[C@H]1CCC2(CC2)NC(=O)O[C@@H]2CC[C@@H](C2)c2cc([nH]n2)Nc2ccnc(c2)O1 [compound 110]	> 250	50 to 250	> 1250	–
